“Also recorded” adds a separate entry of the source.
What was measured:
[1] = no reference given; cited from earlier work
A431 cells = assay: Neutral Red cell viability assay on A431 squamous carcinoma cells; assay type: cell-based, human; conditions: for IC50: neutral red, 0.1–100 μM, NR: not reached
Description: (§1) The immortalized human keratinocyte (HaCaT) cells and human squamous carcinoma (A431) cells (Sigma-Aldrich, Milan, Italy) were cultured in RPMI 1640 (Euroclone, Milan, Italy) supplemented with 10% fetal bovine serum (FBS), 100 U/mL penicillin, and 100 μg/mL streptomycin (Euroclone) at 37 °C in a humidified atmosphere containing 5% CO2.
(§2) Both HaCaT (EGF-stimulated) and A431 cells were incubated for 72 h with the test compounds at concentrations in the range 0.1–100 μM.
(§3) Cell viability was measured using the Neutral Red (NR) Assay (N2889, Sigma-Aldrich, Darmstadt, Germany) as previously reported. HaCaT and A431 cell lines were seeded at a density of 5 × 10^4 cells/well in 10% FBS medium in a 96-well plate. After 24 h, test compounds, dissolved in DMSO, were diluted in sterile culture medium supplemented with EGF (HaCaT cells) or 1% FBS (A431 cells) and added into the well plate. […] Diclofenac, HT, T and hybrids 1–4 were tested. After 72 h from treatment, NR was added and cells incubated for 2 h. At the end of the incubation period, cells were washed with PBS and, then, incubated for 10 min with a NR solubilisation solution (1% acetic acid in 50% ethanol). The absorbance was measured at 540 nm using the Infinite M200 NanoQuant instrument (Tecan, Salzburg, Austria). Optical density values from vehicle-treated cells were considered as 100% cell viability.

[2] = tested on: EGF-stimulated HaCaT cells; assay: Neutral Red cell viability assay on EGF-stimulated HaCaT cells (actinic keratosis model); assay type: cell-based, human; conditions: for potency relative to diclofenac (native drugs): ratio of IC50 values on EGF-stimulated HaCaT
Description: as §1
HaCaT cells under the proliferative stimulus of EGF were used as model of actinic keratosis (AK), a precancerous disease that can progress in cutaneous squamous cell carcinoma (cSCC), according to the critical role played by the EGFR/Fyn/Src/Erk pathway for promoting cSCC formation. Cells were stimulated with EGF at the concentration 5 ng/mL for whole time of treatment with test compounds (see below).
as §2, §3

[3] = In vitro cutaneous permeation through pig ear skin (Gummer-type diffusion cells); assay type: in vitro ADME; conditions: measured as hybrid 1 in receiving phase; 24 h
Source text: Porcine ears skin, obtained from freshly sacrificed animals in a local slaughterhouse, was used as model. After cleaning with depurated water, full-thickness skin was removed with a scalpel from the cartilage of the outer region. The excised pig ear skin was carefully deprived of the adhering fat and subcutaneous tissue. Prior to the experiments, the pig hairs were abscised and the skin was gently washed. The skin with a thickness about 1.46 ± 0.06 mm was placed in the Gummer-type diffusion cells with the stratum corneum facing the donor compartment and an available diffusion area of […]. […]
The concentration of diclofenac and hybrid 1 in receiving fluids and in the skin samples was selectively determined by HPLC. […]
Linear regression analysis of pseudo steady state diffusion plots allowed calculation of the following parameters: steady-state flux (J, nmols/cm^2·h), given by Q/At, where Q is the amount of permeant diffusing across area A in time t; lag time (h), indicating the time taken by the drug to saturate the membrane and reach the receiving phase, calculated from the X-axis intercept values of the regression lines and the amount of drug permeated at the end of the experiment (Q24h, nmols).

[4] = Homo sapiens, A-431, A431, 72 h
[5] = Homo sapiens, EGF-stimulated HaCaT (5 ng/mL EGF), 72 h, neutral red, 0.1–100 μM, NR: not reached
[6] = EGF-stimulated HaCaT (5 ng/mL EGF), 72 h, neutral red, 0.1–100 μM, NR: not reached

Compound | IC50 (A431 cells; [4]) | IC50 [2, 5] | also measured
O=C(O)Cc1ccccc1Nc1c(Cl)cccc1Cl [diclofenac sodium] | – | – | partition coefficient n-octanol/water, log POW [1]: 4.98
OCCc1ccc(O)c(O)c1 [HT, hydroxytyrosol, reference compound] | > 100 µM | 72.3 ± 3.58 µM | –
3-Hydroxyphenethyl 2-(2-((2,6-dichlorophenyl)amino)phenyl)acetate [hybrid 2] | – | – | IC50 (A431 cells; A431, 72 h): 27.5 ± 1.24 µM; IC50 [2, 6]: 16.1 ± 1.15 µM; potency relative to diclofenac (native drugs) [2]: 4 fold
O=C(CCCOC(=O)Cc1ccccc1Nc1c(Cl)cccc1Cl)OCCc1ccc(O)c(O)c1 [hybrid 3, 3,4-Dihydroxyphenethyl 4-(2-(2-((2,6-dichlorophenyl)amino)phenyl)acetoxy)butanoate] | 30.7 ± 1.33 µM | 17.8 ± 1.09 µM | –
O=C(O)Cc1ccccc1Nc1c(Cl)cccc1Cl [diclofenac] | 32 ± 1.05 µM | 67.1 ± 1.94 µM | –
O=C(CCCOC(=O)Cc1ccccc1Nc1c(Cl)cccc1Cl)OCCc1ccc(O)cc1 [hybrid 4, 4-Hydroxyphenethyl 4-(2-(2-((2,6-dichlorophenyl)amino)phenyl)acetoxy)butanoate] | > 100 µM | > 100 µM | effect on cell viability (in words) (A431 cells; A431, 72 h): not able to induce modification in cell viability; effect on cell viability (in words) ([2]; EGF-stimulated HaCaT, 72 h): antiproliferative effect lower than that of diclofenac; also recorded: not able to induce modification in cell viability
OCCc1ccc(O)cc1 [T, tyrosol, reference compound] | > 100 µM | > 100 µM | IC50 ± SEM [2, 6]: not reached
O=C(Cc1ccccc1Nc1c(Cl)cccc1Cl)OCCc1ccc(O)c(O)c1 [hybrid 1, 3,4-Dihydroxyphenethyl 2-(2-((2,6-dichlorophenyl)amino)phenyl)acetate] | 13.5 ± 2.49 µM | 3.71 ± 1.08 µM | Flux [3]: did not permeate across the skin; IC50 in A431 relative to IC50 in EGF-stimulated HaCaT (A431 cells; A431 vs EGF-stimulated HaCaT): about 4 fold; melting point: 123 to 125 °C; potency relative to diclofenac (native drugs) [2]: about 20 fold
